Assay results taken from article PMC10114980, “Triple targeting of mutant EGFR^L858R/T790M, COX-2, and 15-LOX: design and synthesis of novel quinazolinone tethered phenyl urea derivatives for anti-inflammatory and anticancer evaluation” (Journal of Enzyme Inhibition and Medicinal Chemistry, 2023).

Tests used:
T-47D = assay: NCI single dose screen, T-47D; format: cell-based; settings: Homo sapiens, T47D, breast cancer, single dose 10^−5 M, read-out: growth inhibition percentage
Procedure: (§1) Screening of the anticancer activity of the newly synthesised compounds (6a, 6c, 6d, 6e, 6j, 6l, 6m, 6n, 6o, and 6p) was performed by the US National Cancer Institute (NCI) using 60 different human tumour cell lines in accordance with standard procedures formerly reported.
(§2) In vitro anticancer screening was carried out for the selected compounds at a single dose (10^−5 M) against 60 different human tumour cell lines of nine different cancer cell types: leukaemia, lung, colon, CNS, melanoma, ovarian, renal, prostate, and breast cancers.

NCI-H226 = assay: NCI single dose screen, NCI-H226; format: cell-based; settings: Homo sapiens; NCI-H226, non-small cell lung cancer; single dose 10^−5 M; read-out: growth inhibition percentage
Procedure: as §1, §2

CCRF-CEM = assay: NCI single dose screen, CCRF-CEM; format: cell-based; settings: Homo sapiens, leukaemia, single dose 10^−5 M, read-out: growth inhibition percentage
Procedure: as §1, §2

OVCAR-8 = assay: NCI single dose screen, OVCAR-8; format: cell-based; settings: Homo sapiens; OVCAR-8, ovarian cancer; single dose 10^−5 M; read-out: growth inhibition percentage
Procedure: as §1, §2

HS 578T = assay: NCI single dose screen, HS 578T; format: cell-based; settings: Homo sapiens, breast cancer, single dose 10^−5 M, read-out: growth inhibition percentage
Procedure: as §1, §2

NCI/ADR-RES = assay: NCI single dose screen, NCI/ADR-RES; format: cell-based; settings: Homo sapiens, ovarian cancer, single dose 10^−5 M, read-out: growth inhibition percentage
Procedure: as §1, §2

OVCAR-4 = assay: NCI single dose screen, OVCAR-4; format: cell-based; settings: Homo sapiens; OVCAR-4, ovarian cancer; single dose 10^−5 M; read-out: growth inhibition percentage
Procedure: as §1, §2

HOP-92 = assay: NCI single dose screen, HOP-92; format: cell-based; settings: Homo sapiens; HOP-92, non-small cell lung cancer; single dose 10^−5 M; read-out: growth inhibition percentage
Procedure: as §1, §2

786-0 = assay: NCI single dose screen, 786-0; format: cell-based; settings: Homo sapiens; 786-0, renal cancer; single dose 10^−5 M; read-out: growth inhibition percentage
Procedure: as §1, §2

soybean 15-LOX = molecular target: T1, soybean 15-LOX (Glycine max, UniProt P08170); assay: 15-LOX inhibitor screening assay (Cayman); format: biochemical; settings: mean ± SEM, n = 3 replicates
T1 sequence (P08170 1-839): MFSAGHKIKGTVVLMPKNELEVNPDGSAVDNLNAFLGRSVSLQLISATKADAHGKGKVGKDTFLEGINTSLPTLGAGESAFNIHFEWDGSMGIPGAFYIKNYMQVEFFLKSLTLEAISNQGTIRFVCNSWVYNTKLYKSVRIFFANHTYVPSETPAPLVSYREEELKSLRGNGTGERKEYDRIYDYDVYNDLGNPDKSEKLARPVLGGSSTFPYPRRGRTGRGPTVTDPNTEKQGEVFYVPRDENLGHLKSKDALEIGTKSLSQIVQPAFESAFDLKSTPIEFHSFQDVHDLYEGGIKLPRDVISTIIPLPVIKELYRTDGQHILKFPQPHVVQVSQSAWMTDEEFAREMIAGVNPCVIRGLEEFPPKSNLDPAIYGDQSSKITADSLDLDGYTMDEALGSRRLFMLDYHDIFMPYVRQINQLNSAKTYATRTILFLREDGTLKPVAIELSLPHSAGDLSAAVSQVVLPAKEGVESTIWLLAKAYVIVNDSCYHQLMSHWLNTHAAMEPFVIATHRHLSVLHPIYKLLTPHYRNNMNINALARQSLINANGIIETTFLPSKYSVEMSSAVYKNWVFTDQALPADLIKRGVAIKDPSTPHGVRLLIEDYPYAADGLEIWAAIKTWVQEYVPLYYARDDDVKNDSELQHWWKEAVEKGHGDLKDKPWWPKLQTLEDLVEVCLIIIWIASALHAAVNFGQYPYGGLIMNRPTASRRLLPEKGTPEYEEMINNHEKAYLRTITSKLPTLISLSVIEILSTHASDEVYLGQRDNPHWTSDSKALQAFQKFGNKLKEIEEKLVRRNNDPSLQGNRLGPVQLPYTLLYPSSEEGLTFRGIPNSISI

MDA-MB-231/ATCC = assay: NCI single dose screen, MDA-MB-231/ATCC; format: cell-based; settings: Homo sapiens, breast cancer, single dose 10^−5 M, read-out: growth inhibition percentage
Procedure: as §1, §2

TK-10 = assay: NCI single dose screen, TK-10; format: cell-based; settings: Homo sapiens; TK-10, renal cancer; single dose 10^−5 M; read-out: growth inhibition percentage
Procedure: as §1, §2

DU-145 = assay: NCI single dose screen, DU-145; format: cell-based; settings: Homo sapiens; DU-145, prostate cancer; single dose 10^−5 M; read-out: growth inhibition percentage
Procedure: as §1, §2

human recombinant COX-2 = molecular target: T2, human recombinant COX-2 (Homo sapiens, UniProt P35354); assay: In vitro COX-2 inhibition assay kit (Cayman); format: biochemical; settings: for COX-2 SI: Selectivity index = COX-1 IC50/COX-2 IC50; for IC50: human recombinant COX-2, mean ± SEM, n = 3 replicates
T2 sequence (P35354 18-604): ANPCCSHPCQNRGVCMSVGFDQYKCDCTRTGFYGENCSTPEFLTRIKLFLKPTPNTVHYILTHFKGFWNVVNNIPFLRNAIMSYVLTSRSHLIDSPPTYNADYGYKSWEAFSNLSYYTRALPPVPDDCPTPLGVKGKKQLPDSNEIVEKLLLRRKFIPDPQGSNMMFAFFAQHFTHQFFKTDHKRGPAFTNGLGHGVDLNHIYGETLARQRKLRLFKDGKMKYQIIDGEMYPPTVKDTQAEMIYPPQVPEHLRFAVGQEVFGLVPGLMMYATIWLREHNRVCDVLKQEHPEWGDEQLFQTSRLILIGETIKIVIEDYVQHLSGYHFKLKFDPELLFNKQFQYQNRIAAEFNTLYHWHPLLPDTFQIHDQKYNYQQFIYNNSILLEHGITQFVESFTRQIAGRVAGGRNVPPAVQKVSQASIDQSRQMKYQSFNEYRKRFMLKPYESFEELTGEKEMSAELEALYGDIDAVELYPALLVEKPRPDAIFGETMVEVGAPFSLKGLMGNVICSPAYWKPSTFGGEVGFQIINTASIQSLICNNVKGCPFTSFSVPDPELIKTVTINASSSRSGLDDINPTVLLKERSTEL
Procedure: The half-maximal inhibitory concentration (IC50, μM) was determined, and the COX-2 selectivity index (SI) was calculated as IC50 (COX-1)/IC50 (COX-2).

SF-539 = assay: NCI single dose screen, SF-539; format: cell-based; settings: Homo sapiens, read-out: growth inhibition percentage
Procedure: as §1, §2

SR = assay: NCI single dose screen, SR; format: cell-based; settings: Homo sapiens, leukaemia, single dose 10^−5 M, read-out: growth inhibition percentage
Procedure: as §1, §2

A549/ATCC = assay: NCI single dose screen, A549/ATCC; format: cell-based; settings: Homo sapiens, non-small cell lung cancer, single dose 10^−5 M, read-out: growth inhibition percentage
Procedure: as §1, §2

UACC-62 = assay: NCI single dose screen, UACC-62; format: cell-based; settings: Homo sapiens; UACC-62, melanoma; single dose 10^−5 M; read-out: growth inhibition percentage
Procedure: as §1, §2

Row | SMILES | inhibition at 10 µM (T-47D) [%] | inhibition at 10 µM (NCI-H226) [%] | inhibition at 10 µM (CCRF-CEM) [%] | inhibition at 10 µM (OVCAR-8) [%] | inhibition at 10 µM (HS 578T) [%] | inhibition at 10 µM (NCI/ADR-RES) [%] | inhibition at 10 µM (OVCAR-4) [%] | inhibition at 10 µM (HOP-92) [%] | inhibition at 10 µM (786-0) [%] | IC50 (soybean 15-LOX) [nM] | inhibition at 10 µM (MDA-MB-231/ATCC) [%] | inhibition at 10 µM (TK-10) [%] | inhibition at 10 µM (DU-145) [%] | COX-2 SI (human recombinant COX-2) | IC50 (human recombinant COX-2) [nM] | inhibition at 10 µM (SF-539) [%] | inhibition at 10 µM (SR) [%] | inhibition at 10 µM (A549/ATCC) [%] | inhibition at 10 µM (UACC-62) [%]
1 | CN1CN(NC(=O)Nc2ccccc2)C(=O)c2ccccc21 [Compound 6a, 1-(1-Methyl-4-oxo-1,4-dihydroquinazolin-3(2H)-yl)-3-phenylurea] | < 10 | < 10 | < 10 | < 10 | < 10 | < 10 | < 10 | < 10 | < 10 | 1480 ± 270 | < 10 | < 10 | < 10 | 0.18 | 68300 ± 1890 | < 10 | < 10 | < 10 | < 10
2 | CN1c2ccccc2C(=O)N(NC(=O)Nc2ccccc2)C1c1ccccc1 (stereo not shown) [Compound 6c, 1-(1-Methyl-4-oxo-2-phenyl-1,4-dihydroquinazolin-3(2H)-yl)-3-phenylurea] | < 10 | < 10 | < 10 | < 10 | 56.8 | < 10 | < 10 | < 10 | 35.3 | 1360 ± 190 | < 10 | < 10 | < 10 | 0.29 | 3410 ± 1830 | < 10 | < 10 | < 10 | < 10
3 | CN1c2ccccc2C(=O)N(NC(=O)Nc2ccccc2)C1c1ccc(F)cc1 (stereo not shown) [Compound 6d, 1-(2-(4-Fluorophenyl)-1-methyl-4-oxo-1,4-dihydroquinazolin-3(2H)-yl)-3-phenylurea] | < 10 | < 10 | < 10 | < 10 | < 10 | < 10 | < 10 | < 10 | 11.9 | 1960 ± 230 | < 10 | < 10 | < 10 | 2.20 | 2070 ± 1390 | < 10 | < 10 | < 10 | 15.1
4 | CN1c2ccccc2C(=O)N(NC(=O)Nc2ccccc2)C1c1ccc([N+](=O)[O-])cc1 (stereo not shown) [Compound 6e, 1-(1-Methyl-2-(4-nitrophenyl)-4-oxo-1,4-dihydroquinazolin-3(2H)-yl)-3-phenylurea] | < 10 | < 10 | < 10 | < 10 | < 10 | < 10 | < 10 | < 10 | 39.9 | 1760 ± 270 | < 10 | < 10 | < 10 | 11.48 | 830 ± 1370 | < 10 | < 10 | < 10 | < 10
5 | COc1ccc(NC(=O)NN2C(=O)c3ccccc3N(C)C2c2ccc(OC)cc2)cc1 (stereo not shown) [Compound 6j, 1-(4-Methoxyphenyl)-3-(2-(4-methoxyphenyl)-1-methyl-4-oxo-1,4-dihydroquinazolin-3(2H)-yl)urea] | < 10 | < 10 | < 10 | < 10 | < 10 | < 10 | < 10 | < 10 | 34.2 | 1950 ± 350 | < 10 | < 10 | < 10 | 5.34 | 5040 ± 1560 | < 10 | 11.6 | < 10 | < 10
6 | CC1N(NC(=O)Nc2ccc(F)cc2)C(=O)c2ccccc2N1C (stereo not shown) [Compound 6l, 1–(1,2-Dimethyl-4-oxo-1,4-dihydroquinazolin-3(2H)-yl)-3-(4-fluorophenyl)urea] | < 10 | < 10 | < 10 | < 10 | < 10 | < 10 | < 10 | < 10 | < 10 | 1580 ± 280 | < 10 | 15.4 | < 10 | 0.05 | 1490 ± 1110 | < 10 | < 10 | < 10 | < 10
7 | CN1c2ccccc2C(=O)N(NC(=O)Nc2ccc(F)cc2)C1c1ccccc1 (stereo not shown) [Compound 6m, 1-(4-Fluorophenyl)-3-(1-methyl-4-oxo-2-phenyl-1,4-dihydroquinazolin-3(2H)-yl)urea] | 13.9 | < 10 | < 10 | < 10 | < 10 | 16.8 | 10.8 | < 10 | 12.9 | 2230 ± 360 | 23 | < 10 | < 10 | 3.93 | 3160 ± 1220 | < 10 | < 10 | < 10 | 20.7
